We go through four molecules from the kinase profiling compilation of Christmann-Franck et al. (2016).

The target of one experiment is GAK (human) (UniProt O14976). The experiment can be described thus: KINOMEscan competition binding. Conditions: compound 10.0 µM.
The target in a further experiment is RAF1 (human) (UniProt P04049). The experiment can be described thus: KINOMEscan competition binding. Conditions: compound 10.0 µM.
Another experiment has as its target RPS6KA2 KD2 (human) (UniProt Q15349). The experiment can be described thus: KINOMEscan competition binding. As to conditions: compound 10.0 µM.
The next experiment deals with MYLK (human) (UniProt Q15746). The experiment can be described thus: KINOMEscan competition binding. Conditions: compound 10.0 µM.
Another experiment deals with PLK3 (human) (UniProt Q9H4B4). As to the kind of experiment: KINOMEscan competition binding. As to conditions: compound 10.0 µM.
A further experiment has as its target RPS6KA4 KD2 (human) (UniProt O75676). The experiment can be described thus: KINOMEscan competition binding. Conditions: compound 10.0 µM.
Experiment [1] has as its target TTK (human) (UniProt P33981). As to the kind of experiment: KINOMEscan competition binding. As to conditions: for kinase still bound, per cent of control: compound 10.0 µM.
The target of the next experiment is PLK1 (human) (UniProt P53350). As to the kind of experiment: KINOMEscan competition binding. As to conditions: compound 10.0 µM.
In a further experiment the target is STK33 (human) (UniProt Q9BYT3). As to the kind of experiment: KINOMEscan competition binding. As to conditions: compound 10.0 µM.
In a further experiment the target is PLK4 (human) (UniProt O00444). As to the kind of experiment: KINOMEscan competition binding. Conditions: compound 10.0 µM.
PLK4 (human), sequence (O00444 whole entry, looked up): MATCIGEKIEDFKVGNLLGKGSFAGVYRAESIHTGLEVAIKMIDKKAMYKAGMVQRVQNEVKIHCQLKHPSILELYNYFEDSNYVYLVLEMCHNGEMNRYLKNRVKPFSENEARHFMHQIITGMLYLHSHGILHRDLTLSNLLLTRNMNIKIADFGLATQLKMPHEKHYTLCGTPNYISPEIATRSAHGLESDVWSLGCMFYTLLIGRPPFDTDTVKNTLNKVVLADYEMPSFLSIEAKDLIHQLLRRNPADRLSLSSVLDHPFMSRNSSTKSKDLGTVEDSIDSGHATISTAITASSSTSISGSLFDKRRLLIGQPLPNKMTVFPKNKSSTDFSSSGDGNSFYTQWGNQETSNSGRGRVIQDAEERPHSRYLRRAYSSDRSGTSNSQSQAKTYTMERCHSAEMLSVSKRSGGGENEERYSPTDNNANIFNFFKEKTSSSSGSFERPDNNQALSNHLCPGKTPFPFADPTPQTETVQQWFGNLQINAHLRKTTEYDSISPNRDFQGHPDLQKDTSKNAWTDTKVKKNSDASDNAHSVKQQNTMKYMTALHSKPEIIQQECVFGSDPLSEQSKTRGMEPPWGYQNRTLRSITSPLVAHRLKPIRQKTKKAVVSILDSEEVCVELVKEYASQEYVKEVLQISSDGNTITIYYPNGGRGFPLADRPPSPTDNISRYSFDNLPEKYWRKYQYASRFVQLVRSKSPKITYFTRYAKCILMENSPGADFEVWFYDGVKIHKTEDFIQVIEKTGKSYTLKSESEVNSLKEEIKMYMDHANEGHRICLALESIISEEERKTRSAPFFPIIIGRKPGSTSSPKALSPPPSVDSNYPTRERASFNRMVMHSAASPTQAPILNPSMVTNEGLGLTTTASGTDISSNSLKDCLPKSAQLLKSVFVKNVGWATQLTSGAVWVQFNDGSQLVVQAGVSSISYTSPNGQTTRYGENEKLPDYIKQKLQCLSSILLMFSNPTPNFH
The target of a further experiment is PTK2 (human) (UniProt Q05397). The experiment can be described thus: KINOMEscan competition binding. Conditions: compound 10.0 µM.
In experiment [2] the target is TTK (human) (UniProt P33981). As to the kind of experiment: SelectScreen, TR FRET. In general terms: In TR-FRET formats the signal depends on donor and acceptor labels being close together.
TTK (human), sequence (P33981 whole entry, looked up): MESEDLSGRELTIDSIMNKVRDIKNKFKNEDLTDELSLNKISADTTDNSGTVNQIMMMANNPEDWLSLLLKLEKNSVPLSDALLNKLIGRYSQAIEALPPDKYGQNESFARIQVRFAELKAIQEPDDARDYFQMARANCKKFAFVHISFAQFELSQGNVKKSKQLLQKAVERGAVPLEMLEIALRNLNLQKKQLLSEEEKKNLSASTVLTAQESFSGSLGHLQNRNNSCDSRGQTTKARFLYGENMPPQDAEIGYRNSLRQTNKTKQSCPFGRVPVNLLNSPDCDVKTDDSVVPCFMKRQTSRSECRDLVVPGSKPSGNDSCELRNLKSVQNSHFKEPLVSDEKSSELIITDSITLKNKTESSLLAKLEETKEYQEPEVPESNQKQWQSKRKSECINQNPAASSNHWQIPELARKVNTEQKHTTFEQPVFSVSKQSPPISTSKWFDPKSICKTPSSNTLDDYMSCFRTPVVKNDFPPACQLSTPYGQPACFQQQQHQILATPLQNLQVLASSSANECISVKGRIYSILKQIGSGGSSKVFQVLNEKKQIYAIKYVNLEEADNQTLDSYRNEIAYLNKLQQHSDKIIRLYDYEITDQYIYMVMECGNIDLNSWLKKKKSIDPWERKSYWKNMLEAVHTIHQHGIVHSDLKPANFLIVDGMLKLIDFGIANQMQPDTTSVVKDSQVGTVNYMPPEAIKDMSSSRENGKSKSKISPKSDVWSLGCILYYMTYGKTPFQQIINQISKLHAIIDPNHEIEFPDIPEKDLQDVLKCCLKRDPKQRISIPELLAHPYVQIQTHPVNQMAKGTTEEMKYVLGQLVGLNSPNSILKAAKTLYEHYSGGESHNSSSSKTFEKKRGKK
Another experiment addresses PIK3C2B (human) (UniProt O00750). As to the kind of experiment: KINOMEscan competition binding. Conditions: compound 10.0 µM.
The target of a further experiment is HIPK1 (human) (UniProt Q86Z02). The experiment can be described thus: KINOMEscan competition binding. As to conditions: compound 10.0 µM.
In a further experiment the target is PIK3CD (human) (UniProt O00329). The experiment can be described thus: KINOMEscan competition binding. As to conditions: compound 10.0 µM.
The target in a further experiment is PIK3CG (human) (UniProt P48736). The experiment can be described thus: KINOMEscan competition binding. As to conditions: compound 10.0 µM.
A further experiment addresses TAOK1 (human) (UniProt Q7L7X3). The experiment can be described thus: KINOMEscan competition binding. Conditions: compound 10.0 µM.
In experiment [3] the test system is PIK3CA (human), P42336 [E545K]. The experiment can be described thus: KINOMEscan competition binding. Conditions: compound 10.0 µM.
The target of the next experiment is MAP2K3 (human) (UniProt P46734). As to the kind of experiment: KINOMEscan competition binding. Conditions: compound 10.0 µM.
Experiment [4] addresses PIM1 (human) (UniProt P11309). As to the kind of experiment: KINOMEscan competition binding. As to conditions: compound 10.0 µM.
For a further experiment, the target named is CDK7 (human) (UniProt P50613). The experiment can be described thus: KINOMEscan competition binding. Conditions: compound 10.0 µM.
A further experiment addresses CDK16 (human) (UniProt Q00536). As to the kind of experiment: KINOMEscan competition binding. Conditions: compound 10.0 µM.
The target in another experiment is DAPK1 (human) (UniProt P53355). As to the kind of experiment: KINOMEscan competition binding. Conditions: compound 10.0 µM.
The next experiment addresses STK17B (human) (UniProt O94768). The experiment can be described thus: KINOMEscan competition binding. Conditions: compound 10.0 µM.
The target of another experiment is CSNK2A2 (human) (UniProt P19784). The experiment can be described thus: KINOMEscan competition binding. As to conditions: compound 10.0 µM.
CSNK2A2 (human), sequence (P19784 whole entry, looked up): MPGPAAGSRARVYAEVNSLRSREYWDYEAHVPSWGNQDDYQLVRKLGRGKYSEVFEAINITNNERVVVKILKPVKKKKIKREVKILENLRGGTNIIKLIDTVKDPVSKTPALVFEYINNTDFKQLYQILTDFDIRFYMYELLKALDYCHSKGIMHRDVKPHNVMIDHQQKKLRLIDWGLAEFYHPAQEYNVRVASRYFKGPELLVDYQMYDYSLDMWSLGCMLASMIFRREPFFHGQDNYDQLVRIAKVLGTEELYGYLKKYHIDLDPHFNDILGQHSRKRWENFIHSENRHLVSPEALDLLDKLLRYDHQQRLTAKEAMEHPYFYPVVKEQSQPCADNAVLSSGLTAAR
A further experiment addresses MAPK12 (human) (UniProt P53778). As to the kind of experiment: KINOMEscan competition binding. As to conditions: compound 10.0 µM.
A further experiment deals with CSNK2A1 (human) (UniProt P68400). The experiment can be described thus: KINOMEscan competition binding. As to conditions: compound 10.0 µM.
For a further experiment, the target named is PIK3CA (human) (UniProt P42336). The experiment can be described thus: KINOMEscan competition binding. Conditions: compound 10.0 µM.
The next experiment deals with DAPK3 (human) (UniProt O43293). The experiment can be described thus: KINOMEscan competition binding. As to conditions: compound 10.0 µM.
In a further experiment the target is LATS2 (human) (UniProt Q9NRM7). As to the kind of experiment: KINOMEscan competition binding. As to conditions: compound 10.0 µM.
For another experiment, the target named is AAK1 (human) (UniProt Q2M2I8). The experiment can be described thus: KINOMEscan competition binding. As to conditions: compound 10.0 µM.
A further experiment deals with MINK1 (human) (UniProt Q8N4C8). As to the kind of experiment: KINOMEscan competition binding. As to conditions: compound 10.0 µM.
MINK1 (human), sequence (Q8N4C8 whole entry, looked up): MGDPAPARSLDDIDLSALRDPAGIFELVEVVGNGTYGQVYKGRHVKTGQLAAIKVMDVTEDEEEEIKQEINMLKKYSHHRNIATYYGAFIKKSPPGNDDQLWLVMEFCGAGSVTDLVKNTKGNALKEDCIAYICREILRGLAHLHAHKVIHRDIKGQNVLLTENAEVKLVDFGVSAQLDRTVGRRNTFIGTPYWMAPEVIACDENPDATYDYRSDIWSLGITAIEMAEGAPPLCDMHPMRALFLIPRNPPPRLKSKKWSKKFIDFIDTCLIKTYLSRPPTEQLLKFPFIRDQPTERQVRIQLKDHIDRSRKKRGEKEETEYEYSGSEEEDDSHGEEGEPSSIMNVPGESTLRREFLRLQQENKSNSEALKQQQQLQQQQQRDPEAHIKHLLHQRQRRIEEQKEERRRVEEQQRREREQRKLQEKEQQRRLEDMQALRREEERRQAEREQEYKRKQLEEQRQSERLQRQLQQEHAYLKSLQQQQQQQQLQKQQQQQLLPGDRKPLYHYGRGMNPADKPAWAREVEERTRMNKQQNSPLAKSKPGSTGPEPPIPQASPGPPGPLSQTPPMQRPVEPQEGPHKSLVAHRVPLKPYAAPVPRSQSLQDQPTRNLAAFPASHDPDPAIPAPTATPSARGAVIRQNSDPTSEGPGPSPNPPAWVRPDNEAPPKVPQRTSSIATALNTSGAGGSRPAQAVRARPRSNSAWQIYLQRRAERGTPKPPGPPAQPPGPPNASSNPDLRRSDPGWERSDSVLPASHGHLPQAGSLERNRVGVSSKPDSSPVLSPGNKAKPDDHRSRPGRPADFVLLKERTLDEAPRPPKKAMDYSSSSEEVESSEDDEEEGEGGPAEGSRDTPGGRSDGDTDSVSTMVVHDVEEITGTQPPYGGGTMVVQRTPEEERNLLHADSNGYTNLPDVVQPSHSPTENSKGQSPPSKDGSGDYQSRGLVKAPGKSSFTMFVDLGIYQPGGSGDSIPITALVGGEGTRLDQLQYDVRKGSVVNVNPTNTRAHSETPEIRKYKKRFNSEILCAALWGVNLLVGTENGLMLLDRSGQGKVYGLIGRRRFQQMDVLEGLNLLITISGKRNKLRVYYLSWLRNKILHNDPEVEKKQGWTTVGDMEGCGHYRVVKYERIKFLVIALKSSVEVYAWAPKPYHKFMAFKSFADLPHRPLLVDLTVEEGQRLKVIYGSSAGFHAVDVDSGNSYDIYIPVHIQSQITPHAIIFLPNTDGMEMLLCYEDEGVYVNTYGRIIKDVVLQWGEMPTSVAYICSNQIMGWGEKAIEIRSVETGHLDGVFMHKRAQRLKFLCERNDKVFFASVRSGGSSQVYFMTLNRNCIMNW
A further experiment concerns the target PIM3 (human) (UniProt Q86V86). The experiment can be described thus: KINOMEscan competition binding. As to conditions: compound 10.0 µM.
A further experiment concerns the target DAPK2 (human) (UniProt Q9UIK4). The experiment can be described thus: KINOMEscan competition binding. As to conditions: compound 10.0 µM.
The target of another experiment is PIK3CB (human) (UniProt P42338). As to the kind of experiment: KINOMEscan competition binding. As to conditions: compound 10.0 µM.
For experiment [5], the target named is PIM2 (human) (UniProt Q9P1W9). As to the kind of experiment: KINOMEscan competition binding. Conditions: compound 10.0 µM.
PIM2 (human), sequence (Q9P1W9 whole entry, looked up): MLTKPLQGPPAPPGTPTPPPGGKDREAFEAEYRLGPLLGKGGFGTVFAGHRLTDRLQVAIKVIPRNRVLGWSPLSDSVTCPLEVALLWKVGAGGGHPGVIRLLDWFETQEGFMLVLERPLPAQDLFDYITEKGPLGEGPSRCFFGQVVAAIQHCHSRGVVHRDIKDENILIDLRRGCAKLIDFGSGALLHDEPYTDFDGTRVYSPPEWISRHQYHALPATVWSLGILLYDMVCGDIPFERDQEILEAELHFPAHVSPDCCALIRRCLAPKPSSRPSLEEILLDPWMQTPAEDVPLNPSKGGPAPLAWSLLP
The next experiment concerns the target BTK (human) (UniProt Q06187). The experiment can be described thus: KINOMEscan competition binding. As to conditions: compound 10.0 µM.
The target of experiment [6] is PIM1 (human) (UniProt P11309). The experiment can be described thus: SelectScreen, TR FRET.
PIM1 (human), sequence (P11309 whole entry, looked up): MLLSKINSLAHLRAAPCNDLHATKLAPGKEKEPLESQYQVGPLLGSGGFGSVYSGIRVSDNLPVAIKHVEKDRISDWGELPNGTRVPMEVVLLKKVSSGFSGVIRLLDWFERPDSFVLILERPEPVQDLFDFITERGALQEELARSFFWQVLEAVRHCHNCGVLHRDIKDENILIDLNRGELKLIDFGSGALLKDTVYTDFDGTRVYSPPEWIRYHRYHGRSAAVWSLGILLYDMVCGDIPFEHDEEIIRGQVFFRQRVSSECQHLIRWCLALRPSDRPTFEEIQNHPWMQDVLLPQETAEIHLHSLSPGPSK
For experiment [7], the target named is PIM2 (human) (UniProt Q9P1W9). The experiment can be described thus: SelectScreen, TR FRET.
The target in a further experiment is MAP4K4 (human) (UniProt O95819). As to the kind of experiment: KINOMEscan competition binding. As to conditions: compound 10.0 µM.

Each structure is given as a SMILES string. pIC50, pKd: −log10 of the molar value.

RPS6KA4 KD2 (human), sequence (O75676 whole entry, looked up): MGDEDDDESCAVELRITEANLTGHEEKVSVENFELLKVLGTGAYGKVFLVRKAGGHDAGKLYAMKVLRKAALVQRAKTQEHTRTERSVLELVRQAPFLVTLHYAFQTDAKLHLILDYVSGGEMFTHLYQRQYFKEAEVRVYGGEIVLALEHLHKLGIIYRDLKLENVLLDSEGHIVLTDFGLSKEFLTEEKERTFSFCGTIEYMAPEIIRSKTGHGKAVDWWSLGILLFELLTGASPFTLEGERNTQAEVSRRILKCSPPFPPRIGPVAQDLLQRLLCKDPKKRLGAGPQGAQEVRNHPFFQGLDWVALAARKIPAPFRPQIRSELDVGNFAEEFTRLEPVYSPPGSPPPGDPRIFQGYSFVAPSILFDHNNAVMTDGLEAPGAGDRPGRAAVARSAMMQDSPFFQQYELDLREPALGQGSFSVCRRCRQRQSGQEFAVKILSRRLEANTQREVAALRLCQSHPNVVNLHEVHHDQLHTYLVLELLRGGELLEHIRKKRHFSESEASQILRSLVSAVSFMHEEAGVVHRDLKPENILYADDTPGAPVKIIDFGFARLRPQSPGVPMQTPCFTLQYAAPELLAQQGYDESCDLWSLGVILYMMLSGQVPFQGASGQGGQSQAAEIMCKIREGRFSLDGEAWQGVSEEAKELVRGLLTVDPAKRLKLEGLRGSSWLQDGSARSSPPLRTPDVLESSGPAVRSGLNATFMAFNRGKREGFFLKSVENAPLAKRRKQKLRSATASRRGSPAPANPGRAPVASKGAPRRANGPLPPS

On to `CCN(CC)C1CCN(c2ccc(Nc3ncc4c(n3)N3CCCC3C=CN4C)c(OC(C)C)c2)CC1` (centres undefined), for which the kinase still bound, per cent of control came out at 27% on GAK (human); 0% at RAF1 (human); 32% on RPS6KA2 KD2 (human); 25% on MYLK (human); 5.8% at PLK3 (human); 1.9% on RPS6KA4 KD2 (human). The kinase still bound, per cent of control on TTK (human) [1] came to 7.4%; at PLK1 (human), 4.4%.
For `COc1cc(N(C)CCO)ccc1Nc1ncc2c(n1)N(C1CCCC1)CCC(=O)N2C`, the kinase still bound, per cent of control on GAK (human) was determined as 2.4%; on STK33 (human), 17%; on RAF1 (human), 0%; at PLK3 (human), 0%; at PLK4 (human), 14%; on TTK (human) [1] it was 2.2%. Besides, the kinase still bound, per cent of control is 17% at PTK2 (human) and 7.4% on PLK1 (human). The pKd at TTK (human) [1] was 6.80. Besides, the pIC50 at TTK (human) [2] was 5.86.
On to `NS(=O)(=O)c1ccc(-c2ccc(/C=C3\SC(=O)NC3=O)o2)cc1`, for which the kinase still bound, per cent of control is 18% on PIK3C2B (human); 2.4% at HIPK1 (human); 32% at PIK3CD (human); 3.6% at PIK3CG (human); 9.6% on TAOK1 (human); 20% in [3]. Also, the kinase still bound, per cent of control turned out to be 34% at MAP2K3 (human); 4% on PIM1 (human) [4]; 27% at CDK7 (human); 19% on CDK16 (human); 6% at DAPK1 (human); 9% on STK17B (human). The kinase still bound, per cent of control was 7.9% at CSNK2A2 (human); 28% on MAPK12 (human); 18% on CSNK2A1 (human); 21% at PLK4 (human); 9.9% on RPS6KA4 KD2 (human); 15% at PIK3CA (human). Also, the kinase still bound, per cent of control at DAPK3 (human) was determined as 11%; on LATS2 (human), 8.1%; on AAK1 (human) it was 34%; at MINK1 (human) it was 1.8%; on PIM3 (human) it was 4.9%; at DAPK2 (human), 6.4%. The kinase still bound, per cent of control amounted to 31% at PIK3CB (human), 0.9% at PIM2 (human) [5] and 30% at BTK (human). The pIC50 against PIM1 (human) [6] was 6.67; at PIM2 (human) [7] it was 6.90.
`CS(=O)C1=NC(=O)/C(=C/c2ccc(-c3ccc(S(N)(=O)=O)cc3)o2)S1` (centres undefined): the kinase still bound, per cent of control at HIPK1 (human) was determined as 3.4%; on PIK3CD (human), 30%; at PIK3CG (human), 10%; on TAOK1 (human), 12%; in experiment [3] it was 17%; on MAP2K3 (human), 33%. The kinase still bound, per cent of control was found to be 2.4% at PIM1 (human) [4]; 29% at CDK7 (human); 9.3% on CDK16 (human); 2.3% at DAPK1 (human); 5.2% at STK17B (human); 21% on CSNK2A2 (human). The kinase still bound, per cent of control at CSNK2A1 (human) was 15%; at PLK4 (human), 4.7%; on RPS6KA4 KD2 (human), 18%; on PIK3CA (human), 12%; at DAPK3 (human) it was 8%; on LATS2 (human) it was 21%. Besides, the kinase still bound, per cent of control at MAP4K4 (human) is 18%; at MINK1 (human) it was 32%; on PIM3 (human), 2.8%; at DAPK2 (human), 3.4%; at PIK3CB (human) it was 31%; at PIM2 (human) [5], 3.3%. This molecule came in with a kinase still bound, per cent of control at BTK (human) of 17%. For the same molecule, the pIC50 at PIM1 (human) [6] is 6.53; at PIM2 (human) [7], 6.78.

A word on the pKd: it is the Kd on a negative log10 scale, so that one unit is a factor of ten. The term pIC50 denotes the negative decadic logarithm of the IC50, by convention in mol/L. The low end stands for a large IC50, the high end for a small IC50.
